This is an account of results in PMC10253536, “Bradykinin and Neurotensin Analogues as Potential Compounds in Colon Cancer Therapy” (International Journal of Molecular Sciences, 2023).

Non-standard residues stand in square brackets, D forms with d. Residues, ends and D or L forms follow the SMILES beside them. No end group written: not given here. *: point of attachment. Acetyl(1-adamantyl) = O=C(CC12CC3CC(CC(C3)C1)C2)*; Hyp = O=C(O)[C@@H]1C[C@@H](O)CN1; 2Thi = N[C@@H](Cc1cccs1)C(=O)O; Ac6c = NC1(C(=O)O)CCCCC1

The nature of series [1]: Stability test in human plasma. The note with it: for stability in human plasma (in words): 0.4 mg/mL, 37 °C, up to 24 h, TCA or formic acid/urea procedure depending on peptide, RP-HPLC 223 nm, at least triplicates. As for the experimental part: To check the stability of the studied peptides in human plasma, 24 h incubation of peptides in the appropriate medium was performed. For the studies, two methods were used. The first one involved the presence of trichloroacetic acid (TCA) as a protein precipitating reagent, while the second one involved a mixture of formic acid and urea. […] The procedure with the mixture of the formic acid and urea was used for BK-3, BK-4, BK-6, and BK-8.
• A. TCA procedure for peptides: BK, BK-1, BK-2, BK-5, BK-7, NT, and NT analogues.
Peptide stability tests were performed according to a TCA stability assay based on the method used by Nguyen et al.. Peptides were dissolved in water, mixed with 25% human plasma to a final concentration of 0.4 mg/mL, and incubated at 37 °C with agitation (300 rpm, Thermomixer, Eppendorf AG, Hamburg, Germany). After 0, 1, 2, 3, 4, and 24 h, […] of the solution was taken and mixed with 15% TCA to obtain a final concentration of 3% (v/v). The samples were incubated in ice for 10 min and centrifuged for 10 min (12,000 rpm, Microfuge 16, Beckman Coulter, Brea, CA, USA).
In the second method, peptides were dissolved in water, mixed with 25% human plasma to a final concentration 0.4 mg/mL, and incubated at 37 °C with agitation (300 rpm, Thermomixer, Eppendorf AG, Hamburg, Germany). After 0, 1, 2, 3, 4, and 24 h, […] of the solution was taken and mixed with 25 μL of a mixture of 1050 µL 6 M urea, 330 µL formic acid, and 120 µL water to a final peptide concentration of 0.4 mg/mL. The samples were incubated in ice for 10 min and centrifuged for 10 min (12,000 rpm, Microfuge 16, Beckman Coulter, Brea, CA, USA). Supernatants were analyzed by RP-HPLC on column Kinetex (2.6 µm, XB-C18 100 Å 150 × 2.1 mm) (Phenomenex, Torrance, CA, USA) using a linear gradient of acetonitrile (1–80% over 20 min) with detection at 223 nm. Peptides were quantified by their peak areas relative to the initial peak areas (0 min). All stability tests were performed at least in triplicates. As control samples, peptides dissolved only in water under the same conditions were used.

Series [2] has as its system HCT116 cells. Put plainly: Flow cytometry phenotype (CD133, CD44, CD29), HCT116 colonospheres. The note with it: spherical HCT116, 500 µg/mL, 24 h, vs untreated control, n = 5. Type of series: cell-based, human. As to the method: Figure 4 The phenotype of the colorectal cancer HCT116 cell line expanded in the form of colonospheres and treated with (A,C,E) bradykinin and (B,D,F) neurotensin analogues (500 µg/mL) for 24 h. The data are presented as fold change of frequency of cells with given phenotype in relation to untreated control cells. The control value is set at a level of 1. Bars and whiskers represent the median with min–max values (* p < 0.05 vs. untreated control cells; • p < 0.05 vs. BK treated cells; ANOVA Kruskal–Wallis test, n = 5).
Similarly as for the adherent HTC116 cells, we also tested the spherical form with respect to the presence of CD29 and CD44 integrins on their surface but not only in CD133+ (Figure 4C,D) but also in CD133 (Figure 4E,F). In these studies, the count of CD133+, CD44+, and CD29+ cells was not affected in spherical culture, while at the same time, we observed that CSCs in colonospheres were more likely to change the level of these markers within the CD133-negative population. […] In contrast, the analogues BK-4, BK-6, and BK-8 decreased the number of these cells.
HCT116 in both adherent (5 × 10^4 cells/mL in 24-well plate) and spherical forms (8 × 10^5/mL cells in 24-well ultra-low attachment plates) were maintained in appropriate medium. […]

Series [3] relates to HCT116 cells. Briefly: Cell death assay (7-AAD, flow cytometry), spherical HCT116 cells. Format: cell-based, human. The note with it: spherical HCT116, 500 µg/mL, 24 h, vs untreated control, n = 4. The text has this:
We evaluated the percentage of nonviable cells of HTC116 following analogue treatment via a flow cytometric assay using 7-Amino Actinomycin D (7-AAD) dye according to the procedure presented in the Materials and Methods Section 4.6. This dye is excluded by living cells but binds selectively to the DNA of damaged permeabilized cells. We learned that the number of 7AAD-positive cells changed according to different scenarios in CRC cells cultured in adherent and spherical forms following the incubation with BK and NT analogues (Figure 6).
Figure 6 Analysis of the viability of colorectal cancer HCT116 cells expanded in spherical (A,B) or adherent (C,D) form and treated with bradykinin (A,C) and neurotensin analogues (B,D) (500 µg/mL) for 24 h. Cells were incubated with 7-AAD and analyzed by flow cytometry. The y-axis presents the fold increase in the frequency of 7-AAD+ cells compared to untreated control cells. (* p < 0.05 vs. untreated control cells; • p < 0.05 vs. BK/NT-treated cells; ANOVA Kruskal–Wallis test, n = 4). Data presented as bars and whiskers representing the median with min–max values).
Following BK and NT analogue treatment of HCT116 cells, we evaluated the proportion of dead cells in our samples. For this purpose, we used a 7AAD Via Probe (BD Biosciences, San Jose, CA, USA). […]
Background: A flow cytometer gives signals particle by particle.

What is called fraction remaining is the share of the starting amount still present when the sample was taken. A low value points to more turnover.

On to `N=C(N)NCCC[C@@H](N)C(=O)N[C@@H](CCCNC(=N)N)C(=O)N1CCC[C@H]1C(=O)N1C[C@H](O)C[C@H]1C(=O)NCC(=O)N[C@@H](Cc1cccs1)C(=O)N[C@@H](CO)C(=O)N[C@H](Cc1ccccc1)C(=O)NC1(C(=O)N[C@@H](CCCNC(=N)N)C(=O)O)CCCC1` [BK-2] (HELM PEPTIDE1{[dR].R.P.[Hyp].G.[O=C([C@H](Cc1cccs1)N[*:1])[*:2]].S.[dF].[O=C(C1(N[*:1])CCCC1)[*:2]].R}$$$$V2.0), for which the “stability in human plasma (in words)” value in series [1] (25% human plasma) is “most stable”.

With `N=C(N)NCCC[C@H](NC(=O)[C@H](Cc1cccs1)NC(=O)C1(NC(=O)[C@H](CO)NC(=O)[C@H](Cc2cccs2)NC(=O)CNC(=O)[C@@H]2C[C@@H](O)CN2C(=O)[C@@H]2CCCN2C(=O)[C@H](CCCNC(=N)N)NC(=O)[C@@H](CCCNC(=N)N)NC(=O)CC23CC4CC(CC(C4)C2)C3)CCCCC1)C(=O)O` [BK-3], the “stability in human plasma (in words)” value in series [1] (25% human plasma) is recorded as “least stable”. Further, the amount remaining at 24 h, 0.4 mg/mL in series [1] (human, 25% human plasma) is approximately 40%.

Regarding `N=C(N)NCCC[C@H](NC(=O)C1(NC(=O)[C@@H](Cc2ccccc2)NC(=O)[C@H](CO)NC(=O)[C@H](Cc2cccs2)NC(=O)CNC(=O)[C@@H]2C[C@@H](O)CN2C(=O)[C@@H]2CCCN2C(=O)[C@H](CCCNC(=N)N)NC(=O)[C@@H](CCCNC(=N)N)NC(=O)CC23CC4CC(CC(C4)C2)C3)CCCCC1)C(=O)O` [BK-4] ({Acetyl(1-adamantyl)}-[dR]RP[Hyp]G[2Thi]S[dF][Ac6c]R-OH), in series [1] (25% human plasma), the “stability in human plasma (in words)” value is “most stable”.

Regarding `N=C(N)NCCC[C@@H](N)C(=O)N[C@@H](CCCNC(=N)N)C(=O)N1CCC[C@H]1C(=O)N1C[C@H](O)C[C@H]1C(=O)NCC(=O)N[C@@H](Cc1cccs1)C(=O)N[C@@H](CO)C(=O)N[C@H](Cc1ccccc1)C(=O)N1CCCC[C@H]1C(=O)N[C@@H](CCCNC(=N)N)C(=O)O` [BK-5] (HELM PEPTIDE1{[dR].R.P.[Hyp].G.[O=C([C@H](Cc1cccs1)N[*:1])[*:2]].S.[dF].[O=C([C@@H]1CCCCN1[*:1])[*:2]].R}$$$$V2.0), the “stability in human plasma (in words)” value in series [1] (25% human plasma) was “most stable”.

Turning to `N=C(N)NCCC[C@H](NC(=O)[C@H](Cc1cccs1)NC(=O)[C@H]1CCCCN1C(=O)[C@H](CO)NC(=O)[C@H](Cc1cccs1)NC(=O)CNC(=O)[C@@H]1C[C@@H](O)CN1C(=O)[C@@H]1CCCN1C(=O)[C@H](CCCNC(=N)N)NC(=O)[C@@H](CCCNC(=N)N)NC(=O)CC12CC3CC(CC(C3)C1)C2)C(=O)O` [BK-8], in series [1] (human, 25% human plasma), the fraction remaining at 24 h, 0.4 mg/mL worked out at 70%.

On to `CC(C)C[C@H](NC(=O)[C@@H](NC(=O)[C@H](Cc1ccc(O)cc1)NC(=O)[C@@H]1CCCN1C(=O)[C@H](CCCCN)NC(=O)[C@H](CCCCN)NC(=O)CNC(=O)[C@H](CCC(=O)O)NC(=O)[C@@H]1CCCN1)C(C)(C)C)C(=O)O` [NT-14] (HELM PEPTIDE1{P.E.G.K.K.P.Y.[CC(C)(C)[C@H](N[*:1])C(=O)[*:2]].L}$$$$V2.0), for which, in series [1] (25% human plasma), the “stability in human plasma (in words)” value is given as “better stability than the native peptide”.

With Neurotensin [NT], in the series on HCT116 cells [2], the “CD133-CD44+CD29+ cell count in colonospheres” value is given as “significantly increasing”. Moreover, the “number of nonviable 7AAD+ cells, spherical form” value in the series on HCT116 cells [3] is recorded as “prominently increased”.

Take RPPGFSPFR [BK, Bradykinin]: in series [1] (human, plasma), the amount remaining at 4 h, 0.4 mg/mL came to 96% and the share remaining at 24 h, 0.4 mg/mL was approximately 50%.
